Measured values from ChEMBL document CHEMBL1932937, “Inhibition of noroviruses by piperazine derivatives” (Bioorg Med Chem Lett, 2012).

How the values were obtained:
[1] = system: Norovirus; experiment: Antiviral activity against Norovirus infected in human HG23 cells assessed as inhibition of viral replication after 24 hrs; format: functional; conditions: HG23, 24 h, read-out: ED50 (the source's name)
[2] = Cytotoxicity against human HG23 cells after 48 hrs; format: cell-based; conditions: read-out: TD50
[3] = Therapeutic index, ratio of TD50 for HG23 cells to ED50 for Norovirus infected in human HG23 cells; format: cell-based; conditions: read-out: Ratio TD50/ED50

With O=C(N1CCOCC1)N1CCN(Cc2ccccc2)CC1 as the compound, how does the EC50 [1] read?
Its EC50 is greater than 20 µM.

With O=C(c1cccc(Cl)c1)N1CCN(Cc2ccccc2)CC1 as the compound, how does the EC50 [1] read?
Its EC50 is greater than 20 µM.

With O=C1CC(C(=O)N2CCN(Cc3ccccc3)CC2)CN1Cc1ccccc1 (stereo not drawn) as the compound, how does the EC50 [1] read?
Its EC50 is greater than 20 µM.

For N#Cc1ccc(S(=O)(=O)N2CCN(Cc3cccc(Oc4ccccc4)c3)CC2)cc1, which EC50 [1] is on record?
Its EC50 is 12.5 µM.

And the CC50 at 48 h [2]?
Its CC50 at 48 h is 119 µM.

Which EC50 [1] does the source give for O=C(c1ccccc1Oc1ccccc1)N1CCN(Cc2ccccc2)CC1 here?
The EC50 was 8.2 µM.

What about the CC50 at 48 h [2] of the same compound?
The CC50 at 48 h was 18.5 µM.

Which EC50 [1] does the source give for O=C(c1cccc(Oc2ccccc2)c1)N1CCN(Cc2ccccc2)CC1 here?
The EC50 was 2.8 µM.

What about the CC50 at 48 h [2] of the same compound?
The CC50 at 48 h was 11.4 µM.

Which EC50 [1] does the source give for O=C(c1ccc(Oc2ccccc2)cc1)N1CCN(Cc2ccccc2)CC1 here?
The EC50 was greater than 20 µM.

For O=C(c1cccc(F)c1)N1CCN(Cc2ccccc2)CC1, which EC50 [1] is on record?
The EC50 was greater than 20 µM.

Which results are given for CCCOc1ccc(C(=O)N2CCN(Cc3ccccc3)CC2)cc1?
EC50 [1]: 7.8 µM; CC50 at 48 h [2]: 95.3 µM

For COc1ccc(CC(=O)N2CCN(Cc3ccccc3)CC2)cc1, which EC50 [1] is on record?
The EC50 was greater than 20 µM.

With COc1ccc(Cn2cc(C(=O)N3CCN(Cc4ccccc4)CC3)nn2)cc1 as the compound, how does the EC50 [1] read?
The EC50 was 8.5 µM.

What about the CC50 at 48 h [2] of the same compound?
The CC50 at 48 h was 62.5 µM.

With O=C(c1cn(Cc2cccc(F)c2)nn1)N1CCN(Cc2ccccc2)CC1 as the compound, how does the EC50 [1] read?
Its EC50 is greater than 20 µM.

With O=C(c1cn(Cc2ccc(F)cc2)nn1)N1CCN(Cc2ccccc2)CC1 as the compound, how does the EC50 [1] read?
Its EC50 is greater than 20 µM.

Which EC50 [1] does the source give for O=C(c1cn(CSc2ccccc2)nn1)N1CCN(Cc2ccccc2)CC1 here?
Its EC50 is greater than 20 µM.

For COC(=O)c1ccc(Cn2cc(C(=O)N3CCN(Cc4ccccc4)CC3)nn2)cc1, which EC50 [1] is on record?
Its EC50 is greater than 20 µM.

Which EC50 [1] does the source give for COc1ccc(CN2CC(C(=O)N3CCN(Cc4ccccc4)CC3)CC2=O)cc1 (stereo not drawn) here?
The EC50 was 7.2 µM.

And the CC50 at 48 h [2]?
The CC50 at 48 h was 155 µM.

Which EC50 [1] does the source give for O=C1CC(C(=O)N2CCN(Cc3ccccc3)CC2)CN1CCc1ccccc1 (stereo not drawn) here?
The EC50 was greater than 20 µM.

For O=C1CC(C(=O)N2CCN(Cc3ccccc3)CC2)CN1Cc1ccco1 (stereo not drawn), which EC50 [1] is on record?
Its EC50 is greater than 20 µM.

With O=C(c1ccc(Oc2ccccc2)cc1)N1CCN(Cc2cccc(Oc3ccccc3)c2)CC1 as the compound, how does the EC50 [1] read?
Its EC50 is 3.8 µM.

What about the CC50 at 48 h [2] of the same compound?
Its CC50 at 48 h is 23.5 µM.

With O=C(c1cccc(Oc2ccccc2)c1)N1CCN(Cc2cccc(Oc3ccccc3)c2)CC1 as the compound, how does the EC50 [1] read?
Its EC50 is 5.5 µM.

And the CC50 at 48 h [2]?
The CC50 at 48 h was 15.6 µM.

With O=C(c1ccc(O)cc1)N1CCN(Cc2cccc(Oc3ccccc3)c2)CC1 as the compound, how does the EC50 [1] read?
Its EC50 is greater than 20 µM.

With CC(C)Oc1ccc(C(=O)N2CCN(Cc3cccc(Oc4ccccc4)c3)CC2)cc1 as the compound, how does the EC50 [1] read?
The EC50 was greater than 20 µM.

For N#Cc1ccc(C(=O)N2CCN(Cc3cccc(Oc4ccccc4)c3)CC2)cc1, which EC50 [1] is on record?
The EC50 was greater than 20 µM.

Which EC50 [1] does the source give for COc1ccc(C(=O)N2CCN(Cc3cccc(Oc4ccccc4)c3)CC2)cc1 here?
The EC50 was 4.5 µM.

What about the CC50 at 48 h [2] of the same compound?
The CC50 at 48 h was 25.4 µM.

For O=C(Cc1ccc(Cl)cc1)N1CCN(Cc2cccc(Oc3ccccc3)c2)CC1, which EC50 [1] is on record?
Its EC50 is greater than 20 µM.

For c1ccc(Oc2cccc(CN3CCN(Cc4cccc(Oc5ccccc5)c4)CC3)c2)cc1, which EC50 [1] is on record?
The EC50 was 5.6 µM.

What about the CC50 at 48 h [2] of the same compound?
Its CC50 at 48 h is 75.4 µM.

For Oc1cccc(CN2CCN(Cc3cccc(Oc4ccccc4)c3)CC2)c1, which EC50 [1] is on record?
The EC50 was greater than 20 µM.

Which results are given for CC(C)Oc1ccc(CN2CCN(Cc3cccc(Oc4ccccc4)c3)CC2)cc1?
EC50 [1]: 8.5 µM; CC50 at 48 h [2]: 31.5 µM

Which selectivity ratio [3] does the source give for CCCCS(=O)(=O)N1CCN(Cc2cccc(Oc3ccccc3)c2)CC1 here?
Its selectivity ratio is 18.

And the EC50 [1]?
Its EC50 is 6.7 µM.

And the CC50 at 48 h [2]?
The CC50 at 48 h was 121 µM.

For O=C(c1ccco1)N1CCN(Cc2ccccc2)CC1, which EC50 [1] is on record?
Its EC50 is greater than 20 µM.
